One assay deals with T1, Protein skinhead-1 (Caenorhabditis elegans, UniProt P34707).
T1 sequence (P34707 whole entry): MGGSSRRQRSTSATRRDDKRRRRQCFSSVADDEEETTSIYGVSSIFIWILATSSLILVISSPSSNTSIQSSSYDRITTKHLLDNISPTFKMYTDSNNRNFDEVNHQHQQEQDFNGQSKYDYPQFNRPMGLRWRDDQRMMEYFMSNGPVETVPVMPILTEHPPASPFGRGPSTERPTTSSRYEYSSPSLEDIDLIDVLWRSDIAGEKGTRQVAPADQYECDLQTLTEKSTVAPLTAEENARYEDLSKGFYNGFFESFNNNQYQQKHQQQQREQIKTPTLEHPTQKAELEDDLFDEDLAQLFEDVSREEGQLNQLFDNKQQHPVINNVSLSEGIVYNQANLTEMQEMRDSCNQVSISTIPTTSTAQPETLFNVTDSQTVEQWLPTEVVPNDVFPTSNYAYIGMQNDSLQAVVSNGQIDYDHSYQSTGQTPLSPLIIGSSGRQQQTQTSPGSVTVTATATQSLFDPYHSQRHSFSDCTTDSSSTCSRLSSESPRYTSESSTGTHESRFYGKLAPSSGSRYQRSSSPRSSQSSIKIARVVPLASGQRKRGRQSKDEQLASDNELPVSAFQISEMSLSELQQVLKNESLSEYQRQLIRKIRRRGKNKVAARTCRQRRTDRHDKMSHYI
The class given is functional.

Assay [1] deals with T2, Heat shock factor protein 1 (Mus musculus, UniProt P38532).
T2 sequence (P38532 whole entry): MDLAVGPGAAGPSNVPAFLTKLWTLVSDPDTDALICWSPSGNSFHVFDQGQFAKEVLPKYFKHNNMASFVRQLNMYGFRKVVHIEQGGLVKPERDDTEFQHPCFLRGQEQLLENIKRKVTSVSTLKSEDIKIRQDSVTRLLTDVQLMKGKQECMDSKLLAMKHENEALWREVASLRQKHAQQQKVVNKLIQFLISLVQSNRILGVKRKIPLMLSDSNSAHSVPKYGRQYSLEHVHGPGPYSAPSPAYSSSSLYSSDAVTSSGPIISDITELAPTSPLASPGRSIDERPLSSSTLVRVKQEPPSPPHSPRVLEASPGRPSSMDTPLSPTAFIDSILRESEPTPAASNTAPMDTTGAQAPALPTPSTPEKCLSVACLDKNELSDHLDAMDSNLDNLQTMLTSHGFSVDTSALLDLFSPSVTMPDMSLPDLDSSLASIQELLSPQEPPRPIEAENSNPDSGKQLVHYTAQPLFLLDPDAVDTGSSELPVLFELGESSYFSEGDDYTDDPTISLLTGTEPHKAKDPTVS
Briefly: HSF1 potentiators in luciferase reporter cells, confirmation, cell-based, NIH3T3, luminescence, dose retest (AID 435004).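 Also: stress induced by proteasome inhibitor MG132 added 30 min after compound; luciferase reporter driven by HSF1 response element in NIH3T3 cells; actives raise luminescence as potentiators of the MG132 stress response.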 The class given is functional.

Assay [2] in a line: growth suppression of PTEN-null colon cells, dose response, cell-based, HCT116 PTEN knockout (AID 1047).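 Also: HCT116 colon tumor cells with PTEN knocked out; cells exposed to compound for 60 hours before readout; potency for loss of cell viability measured by luminescence.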 The class given is functional.
Assay [3] can be described thus: growth suppression of beta-catenin-knockout colon cells, dose response, cell-based, HCT116, human colon tumor (AID 1045).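 Also: HCT116 colon tumor cells with beta catenin knocked out; cells exposed to compound for 60 hours.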 The class given is functional.
Assay [4] is described as follows: Luminescence Cell-Based Dose Retest to Confirm Inhibitors of Cancer Stem Cells. [Related pubchem assays (depositor defined):AID2717, AID2721]. The conditions noted are these: Homo sapiens. Format: functional.
For assay [5], the target named is T2, Heat shock factor protein 1. The assay is described as follows: inhibition of MG132-induced HSE-luciferase signal, confirmation, cell-based, NIH3T3, luminescence, dose retest (AID 2382).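 Also: NIH3T3 fibroblasts with HSF1-driven luciferase reporter stressed by proteasome inhibitor MG132; luminescence from HSF1-driven luciferase expression after 8 hours of MG132 stress.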 The class given is functional.
Assay [6] can be described thus: microbe, parasite or virus in culture. The class given is functional. The conditions noted are these: Mycobacterium tuberculosis.
Assay [7] is described as follows: inhibitors of intracellular T. cruzi replication, confirmation, NIH3T3 host cells, beta-gal luminescence (AID 2044).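 Also: intracellular parasites grown in NIH/3T3 mouse fibroblasts as host cells; luminescent beta-galactosidase reporter signal from transgenic T. cruzi replicating inside host cells; inhibitors lower the luminescence signal.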 Format: functional, cell-based.
Assay [8] can be described thus: cytotoxicity toward NIH3T3 fibroblasts, dose response, counter-screen, cell-based, ATP luminescence, mouse fibroblasts (AID 2010).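 Also: cells exposed to compound for about 90 hours before reading.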 The class given is functional. For orientation: A counterscreen serves to expose hits that act by an unwanted route or on another target.
The target of assay [9] is T3, Corticotropin-releasing factor receptor 2/Corticotropin-releasing factor-binding protein (Homo sapiens, UniProt P24387+Q13324).
T3 sequence (Q13324 whole entry): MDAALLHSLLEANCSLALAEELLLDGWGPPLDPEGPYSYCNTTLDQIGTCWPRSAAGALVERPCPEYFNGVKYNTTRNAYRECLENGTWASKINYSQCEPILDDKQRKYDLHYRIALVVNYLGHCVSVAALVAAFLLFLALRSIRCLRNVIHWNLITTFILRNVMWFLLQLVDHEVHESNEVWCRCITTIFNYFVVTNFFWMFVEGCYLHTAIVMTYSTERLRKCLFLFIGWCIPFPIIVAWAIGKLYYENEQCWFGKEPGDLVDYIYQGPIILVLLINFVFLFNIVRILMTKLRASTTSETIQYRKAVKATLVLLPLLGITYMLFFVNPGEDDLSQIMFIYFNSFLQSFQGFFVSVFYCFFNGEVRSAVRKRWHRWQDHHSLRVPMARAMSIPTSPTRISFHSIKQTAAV
T3 sequence (P24387 whole entry): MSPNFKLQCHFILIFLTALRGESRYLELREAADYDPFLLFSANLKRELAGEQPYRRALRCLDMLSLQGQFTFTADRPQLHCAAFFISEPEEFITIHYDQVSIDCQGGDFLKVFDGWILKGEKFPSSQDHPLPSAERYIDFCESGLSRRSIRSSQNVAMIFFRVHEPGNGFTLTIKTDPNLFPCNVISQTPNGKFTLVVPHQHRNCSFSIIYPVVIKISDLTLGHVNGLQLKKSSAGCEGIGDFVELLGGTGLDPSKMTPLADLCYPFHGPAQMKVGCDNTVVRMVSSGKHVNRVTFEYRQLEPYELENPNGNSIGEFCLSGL
Briefly: Dose Response confirmation of uHTS hits for small molecule antagonists of the CRF-binding protein and CRF-R2 receptor complex. The class given is functional. As to conditions: read-out: IC50_Mean.

For assay [10], the target named is T3, Corticotropin-releasing factor receptor 2/Corticotropin-releasing factor-binding protein. The assay is described as follows: activators of CRF receptor 2 with binding protein – uHTS hits, confirmation (AID 602473). The conditions noted are these: read-out: EC50_Mean. Format: functional.
Assay [11] in a line: Luminescence Cell-Based Dose Confirmation HTS to Identify Activators of 5'UTR Stem-Loop Driven Alpha-Synuclein mRNA Translation in H4 Neuroglioblastoma Cells. [Related pubchem assays: 1829 (Project Summary), 1814 (Primary HTS)]. The class given is functional.
Assay [12] can be described thus: Luminescence Cell-Based Dose Response HTS to Identify Activators of Luciferase Translation or Activity in H4 […] Cells. [Related pubchem assays: 1829 (Project Summary), 1814 (Primary HTS)]. The class given is functional.
A further assay relates to H4. Briefly: Luminescence Cell-Based Dose Response HTS to Identify Activators of 5'UTR Stem-Loop Driven Prion Protein mRNA Translation in H4 Neuroglioblastoma Cells. [Related pubchem assays: 1829 (Project Summary), 1814 (Primary HTS)]. The class given is functional. The conditions noted are these: Homo sapiens.
Assay [13] is described as follows: inhibitors of firefly luciferase expression or activity, dose response, H4 neuroglioma cells, luminescence (AID 1990). Format: functional, cell-based.
Assay [14] can be described thus: Luminescence Cell-Based Dose Response HTS to Identify Inhibitors of 5'UTR Stem-Loop Driven Prion Protein mRNA Translation in H4 Neuroglioblastoma Cells. [Related pubchem assays: 1827 (Project Summary), 1813 (Primary HTS)]. The class given is functional.
A short description of assay [15]: inhibitors of SNCA 5'UTR-driven reporter translation, confirmation, H4 neuroglioma cells, luminescence (AID 1988). Format: functional, cell-based.

Calls of active or inactive are those of the source. Rule as the data show it, for most assays here: actives have a measured EC50 and inactives only a lower limit. Where only a bound is given, the exact number is not on record here.

For orientation: AC50 means the concentration at which the activity in the assay is half-maximal.
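For AC50 in this document: cells exposed to compound for roughly 70 hours or longer before luminescence read.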

As to `CCOC(=O)N1CCN(c2ncnc3c2cnn3-c2ccc(OC)cc2)CC1`, the IC50 at Protein skinhead-1 was > 100 µM (inactive).
Regarding `Cc1oc(-c2ccccc2F)nc1CS(=O)(=O)CC(=O)NCCCN1CCN(C)CC1`, the EC50 in assay [1] was > 260 µM (inactive).
For `O=C(/C=C/c1ccncc1)c1ccc(NC(=O)c2ccccc2F)cc1`, the EC50 was 1.12 µM (active) in [2] and 0.813 µM (active) in assay [3]. Also, the AC50 in assay [4] was 5.5 µM (active).
Regarding `COc1cccc(/C=C/C(=O)NCc2ccc3c(c2)OCO3)c1`, in assay [5], the EC50 is listed as > 195 µM (not active).
For `CC(C)(C)NC1=NN=C(c2ccc(Cl)cc2)CS1`, the IC50 on Protein skinhead-1 was 13.9 µM (active).
For the compound `CC(=O)c1cn(CC(=O)Nc2ccccc2C)c2ccccc12`, the EC50 in assay [5] is reported as > 195 µM (not active).
Turning to `COCCCNc1nc2nonc2nc1N1CCN(Cc2cccc(C)c2)CC1`, in [1], the EC50 was > 260 µM (inactive).
On the same count and under the same terms, as for `c1ccc(COc2ccccc2CNC2CCCC2)cc1`, the figure is > 260 µM (inactive).
As for `CCn1c(S(=O)(=O)O)nc2ccccc21`, the EC50 in assay [5] is > 195 µM (not active).
With `Cc1cccc(C#Cc2ccccc2)n1`, the IC50 at Protein skinhead-1 was > 100 µM (inactive).
Consider `O=C(NN=C1c2ccccc2-c2ccccc21)c1cccc(Br)c1`, for which the CC50 in [6] is 15.1 µM (active). Also, the EC50 in [2] is 4.02 µM (active); in assay [3], 4 µM (active).
Regarding `CCN1CCN(c2ccc(NC(=O)CCc3c(C)nc4c(-c5ccc(F)cc5)c(C)nn4c3C)cc2)CC1`, the values for the EC50 in [7] and in assay [8] were 1.48 µM (active) and 32.4 µM (active), respectively. For the same compound, the AC50 in [4] was 2.15 µM (active).
As for `Cc1c(C(=O)N(C)c2ccc(Cl)cc2)cnn1-c1ccccc1`, the IC50 on Protein skinhead-1 is > 100 µM (inactive).
For `N#CCc1ccc(NC(=O)Nc2cccc3ccccc23)cc1`, the EC50 in assay [5] is > 195 µM (not active).
With `Cc1c(Cl)ccc2c1NC(=O)C21NC(CCC(N)=O)[C@H]2C(=O)N(c3ccc(Cl)cc3)C(=O)[C@H]21` (stereo partly specified), the values for the EC50 in [1] and in assay [10] were > 260 µM (inactive) and > 53 µM (inactive), respectively. For the same compound, the IC50 in assay [9] is > 47.1 µM (inactive).
On to `Clc1ccc(C#Cc2cccnc2)cc1`, for which the results for the EC50 (in [11]; in [12]; with H4) were 17.4 µM (active), 24.1 µM (active) and 1.73 µM (active), respectively. Further, the IC50 at Protein skinhead-1 was 12.6 µM (active).
Take `CS(=O)(=O)N(CC(=O)O)c1ccc(C23CC4CC(CC(C4)C2)C3)cc1`: in [5], the EC50 is reported as > 195 µM (not active).
In the case of `Cc1cccc(N/N=C/c2ccccc2O)c1`, the AC50 in assay [4] is 6.21 µM (active).
As for `S=c1[nH]cc(-c2ccccc2)n1-c1ccccc1Cl`, the EC50 in assay [1] was > 260 µM (inactive).
In the case of `CCc1ccccc1NC(=O)c1ccc(NS(C)(=O)=O)cc1`, the EC50 in [5] is recorded as > 195 µM (not active).
Regarding `Cc1ccc(NC(=O)c2ccc(F)cc2F)cc1`, the IC50 at Protein skinhead-1 was 79 µM (inactive).
For the compound `O=[N+]([O-])c1ccc(S(=O)(=O)N2CCSC2c2ccco2)cc1` (stereo unspecified), the EC50 in assay [1] was > 260 µM (inactive).
With `Cc1ccc(N(CC(=O)NCC2CCCO2)S(=O)(=O)c2ccc(Cl)cc2)cc1C` (stereo unspecified), the IC50 on Protein skinhead-1 was > 100 µM (inactive).
For `CCn1c(C(=O)O)c(CC(=O)Nc2cccc(C(F)(F)F)c2)c2ccccc21`, the AC50 in assay [4] was 15.3 µM (active).
As to `Cc1ccc(S(=O)(=O)N(CC(=O)NCc2ccco2)Cc2ccc(F)cc2)cc1`, the EC50 in assay [1] was > 260 µM (inactive).
As to `Cc1ccc(NC(=O)CSc2nc(N)cc(O)n2)cc1S(=O)(=O)N1CCCCCC1`, the IC50 at Protein skinhead-1 was > 100 µM (inactive).
As to `Cc1ccc(C(=O)c2cc(C)sc2NC(=O)CN2CCN(C(=O)c3ccco3)CC2)cc1`, the CC50 in [6] is 23.4 µM (active).
For the compound `CCOc1ccc(/C=N/NC(=O)C(C)N(c2ccc(OC)cc2)S(C)(=O)=O)cc1` (stereo unspecified), the EC50 in assay [1] is > 260 µM (inactive).
As to `CCN(CC)C(=O)c1ccc(-c2ccccc2)cc1`, in assay [5], the EC50 is reported as > 195 µM (not active).
For `O=[N+]([O-])c1ccc(COc2ccc(-c3[nH]ncc3-c3ccc(Cl)cc3)c(O)c2)cc1`, the CC50 in assay [6] was > 40 µM (active). Besides, in assay [4], the AC50 is 4.02 µM (active).
For `N#C/C(=C\c1ccco1)Sc1nc2ccccc2s1`, the results for the EC50 (in assay [11]; in assay [12]; in the assay on H4) were 13.9 µM (active), 11.8 µM (active) and 25.6 µM (active), respectively. In addition, the IC50 on Protein skinhead-1 was > 100 µM (inactive).
On to `CCN1CCN(CCCNC(=O)c2ccc(/C=C3/Oc4ccccc4N(Cc4cccc(C)c4)C3=O)cc2)CC1`, for which the values for the EC50 in assay [13], in [14] and in assay [15] were > 120 µM (not active), > 120 µM (not active) and 13.9 µM (active), respectively. For the same compound, the CC50 in assay [6] is 5.99 µM (active).
`Cc1ccc2c(CN3CCN(S(=O)(=O)/C=C/c4ccccc4)CC3)cc(=O)oc2c1`: in [1], the EC50 is > 260 µM (inactive).

The record behind these values is ChEMBL document CHEMBL1201862, “PubChem BioAssay data set” (2004).
